Test results: a melting point compilation (Tetko et al.; mined from patent text by program, amines drawn as free bases though some values may be those of a salt)

Point of comparison: `O=C(c1cc(=O)c2ccc(OCc3ccccc3)cc2[nH]1)N1CCC(Cc2ccccc2)CC1`, melting point 228 °C. Against it:
- Cc1ccc(-c2nn(-c3ccc(Br)cc3)c(N)c2C(N)=O)cc1 — lower, 222 to 223 °C
- CNC(=O)OC1CC2(CCN(CCCC(=O)c3ccc(F)cc3)C2)c2ccccc21 (configuration not stated) — lower, 167 to 169 °C
- N#Cc1cc(S(=O)(=O)c2ccc(Cl)cc2)[nH]c1-c1ccc(Cl)cc1 — lower, 159 to 160 °C
- O=[N+]([O-])c1ccc(S(=O)(=O)CCCl)cc1 — lower, 130 °C
- COc1cc2c(cc1OCc1ccccc1)CCN(Cc1cc(OC)c(OC)c(OC)c1)C2 — lower, 144 to 145 °C
- O=C(O)C(F)c1cc(F)cc(F)c1 (configuration not stated) — lower, 90 to 110 °C
- COC(=O)c1cc(C(=O)c2c(C)c(N(C)C(=O)c3cccc(OC)c3)c3ccccn23)ccc1[N+](=O)[O-] — lower, 158 °C
- N#CC(N)=C(C#N)N=Cc1cnn(-c2c(F)cc(F)cc2F)n1 — lower, 213 to 215 °C
- N#CCNc1nc(N2CCc3ccccc3CC2)c(C#N)c(=O)[nH]1 — not separable, > 200 °C
- c1cc(N2CCCC2)ncc1C12CCN(CC1)C2 — lower, 119 to 121 °C
- O=[N+]([O-])c1cccc(Oc2nccnc2Cl)c1 — lower, 119 to 121 °C
- CCCCCCCCOc1ccc(O)c2ccccc12 — lower, 73 to 74 °C
- O=C(Nc1ccc(-n2nc(C(F)(F)F)cc2C(F)(F)F)cc1)c1ccc(F)cc1C(F)(F)F — lower, 178 to 179 °C
- OCC1OC(n2cnc3c(N4CCCC4)nc(Cl)nc32)C(O)C1O (configuration not stated) — higher, 229 °C
- N#Cc1ccc(N2C(=O)N(CCF)C3(CCCC3)C2=O)cc1C(F)(F)F — lower, 115 °C
- COc1cc2c(cc1O)CCCC2=O — lower, 117 to 119 °C
- O=C(NC[C@H]1O[C@@H]1c1ccccc1)C(F)(F)F (racemic) — lower, 79 °C
- CC(C)N(C(=O)C(Cc1ccc(C#N)cc1)NC(=O)OC(C)(C)C)C(C)C (configuration not stated) — lower, 172 °C
- CC(c1ccccc1)C(C)([N+](=O)[O-])[N+](=O)[O-] (configuration not stated) — lower, 76 to 78 °C
- c1ccc(Cc2cnc(N3CCN(c4ncnc5ccccc45)CC3)nc2)cc1 — higher, > 250 °C
- N#CCc1ccccc1-c1ccc(C(=O)N2Cc3ccc(C(=O)NCc4cccnc4)n3Cc3ccccc32)cc1 — lower, 105 to 108 °C
- Nc1nc2c(OCCO)cccc2o1 — lower, 124 to 126 °C
- O=C(O)CCc1cc2cc(Cl)ccc2n1S(=O)(=O)c1ccc(-c2ccccc2)cc1 — lower, 160 to 162 °C
- CC(C)COC(=O)N1CCN(c2nc3cccccc-3n2)CC1 — lower, 130 to 133 °C
- CC(=O)C1C(C(=O)c2ccc(Br)cc2)CC2C3CCC4=CC(=O)C=CC4(C)C3(F)C(O)CC21C (configuration not stated) — higher, 285 to 286 °C
- CCOC(=O)CC1(c2ccccc2)CNC(=O)C1 (configuration not stated) — lower, 49 to 51 °C
- CCCCCCCC/C=C\CCCCCCCC(=O)OCC1(CO)CCC(=O)O1 (configuration not stated) — lower, 38.5 to 39.5 °C
- Nc1nc2c(s1)CCN(CC=Cc1ccccc1Br)CC2 — lower, 103 to 106 °C
- CC(C)Cn1nc(-c2ccc(C(F)(F)F)cc2)cc(CO)c1=O — lower, 146 °C
- CCCCCCCN(Cc1ccc(CCC(C)C)cc1)C(=O)Nc1c(OC)ccc2ncccc12 — lower, 86 to 87 °C
- CC(C)(C)NC(=O)N1CCN(Cc2ccccc2)C[C@@H]1C(=O)NCCc1cncn1Cc1ccc(C#N)cc1 — lower, 97.8 °C
- CCCCn1c(=O)c(NC(=O)Nc2cc(CO)ccc2C(C)(C)C)c(-c2cccc(OC)c2)c2cccnc21 — lower, 102 to 105 °C
- COC(=O)[C@H]1CC[C@H](Oc2ccc(C(=O)O)cc2)CC1 — lower, 162 °C
- C=Cc1cc2cc(OC)ccc2n1C — lower, 87 to 89 °C
- ClCCCCOc1ccc(Br)c(CCOCc2ccccc2)c1 — lower, 65 to 66 °C
- CC(N)=NS(=O)(=O)C=Cc1c(Cl)cccc1Cl — lower, 154 to 158 °C
- CCCc1c(OCCCOc2ccc3c(=O)cc(-c4ccc(C(=O)O)cc4)oc3c2CCC)ccc(C(C)=O)c1O — not separable, 226 to 228 °C
- CC(=O)CC(=O)NC1CCCCC1 — lower, 66 to 69 °C
- CC(=O)Nc1cc2c(s1)C(c1ccccc1)CN(C)CC2 (configuration not stated) — lower, 180 °C
- CN(C)C(=O)c1cncn1C — lower, 46 to 47 °C
- CCCCCCCCCCC1(CCCCCCCCCC)c2cc(Br)ccc2-c2ccc(-c3cccs3)cc21 — lower, 36.9 to 38.4 °C
- CCCc1c([C@@H]2C[C@H]2c2ccccc2)oc2ccc(C(=O)OC)cc2c1=O (relative stereo) — lower, 171 to 173 °C
- COC(=O)NC=Cc1ccc(OCC2CO2)c(OC)c1 (configuration not stated) — lower, 122 to 123 °C
- O=C(O)CCCc1cc2cc(C(F)(F)F)ccc2n1S(=O)(=O)c1ccc2c(c1)CCN2 — lower, 175 °C
- COc1ccccc1N1CCCN(c2ccnc3sc(C(N)=O)c(N)c23)CC1 — lower, 179 to 184 °C
- CC(CO)Nc1nc(-c2ccc(Br)cc2)cs1 (configuration not stated) — lower, 100 to 101 °C
- O[C@@H](COc1cccc(-c2noc3ccsc23)c1)CN1CCN(c2n[nH]c3cc(F)ccc23)CC1 — lower, 97 to 99 °C
- O=C(Nc1ccc(Oc2cccc3c2CCC3=O)nc1)c1ccc(Cl)c(Cl)c1 — lower, 202 to 204 °C
- COc1ccc(C=Cc2ccc(O)c(OC)c2)cc1 — lower, 163 to 166 °C
- COc1ccc(S(=O)(=O)C(CC(=O)NO)Cc2ccc(OCc3ccccc3)cc2)cc1 (configuration not stated) — lower, 128 to 130 °C
- NCCNc1nc2ccccc2n(-c2ccc(Cl)cc2)c1=O — lower, 173 to 174 °C
- C[C@H]1[C@@H](O)[C@H](Cc2ccccc2)C(=O)N1c1ccc(C#N)c(Cl)c1 — lower, 99 to 101 °C
- Nc1nc(C(F)(F)F)c(CN2C(=O)C3(COc4cc5c(cc43)OCO5)c3ccccc32)s1 (configuration not stated) — lower, 165 to 167 °C
- CCCCOCCOc1ccc(-c2ccc(N3CCCCCC3)c(C=C(C)C(=O)OC)c2)cc1 — lower, 86 to 89 °C
- CC(=O)Oc1ccccc1C(=O)Oc1cccc(CO)c1 — lower, 77 to 79 °C
- CN(CC(O)C(O)C(O)C(O)CO)C(=O)c1c(I)c(N)c(I)c(N)c1I (configuration not stated) — lower, 110 °C
- CCOCc1nc2c(N)nc3cc(C=O)ccc3c2n1CC(C)(C)O — lower, 203 to 205 °C
- NS(=O)(=O)c1cc(C(=O)OCC(=O)N[C@@H](CCO[N+](=O)[O-])CO[N+](=O)[O-])c(NCc2ccco2)cc1Cl — lower, 93 to 95 °C
- CC(C)(C)NCC(O)c1cc(O)ccc1Cl (configuration not stated) — lower, 162 to 163 °C
- Fc1ccccc1Cn1nnc2c(NC3CC3)nccc21 — higher, 245 to 247 °C
- Cc1cccc2ncn(C3CCC(=O)NC3=O)c(=O)c12 (configuration not stated) — higher, 262 to 264 °C
- COc1ccc(CC(=O)O)cc1OC1CCCC1 — lower, 79 to 80 °C
- CCC(=O)c1cc(C(=O)C(=O)c2cccc(OC)c2)cn1CC — lower, 97 °C
- CCOC(=O)NCCC12CC(c3ccccc31)c1ccccc12 — lower, 122 to 123 °C
- CC1(C)CC2(CC(c3ccc(F)cc3)=C1/C=C/[C@H]1C[C@H](O)CC(=O)O1)OCCO2 (relative stereo) — lower, 142 to 144 °C
- COc1ccccc1-n1c(-c2sc(Nc3ccccc3)nc2C)nc2ccccc2c1=O — lower, 169 to 170 °C
- CCc1ccc(C=Nc2ccc(C#N)cc2)cc1 — lower, 76.2 to 77 °C
- CCC(C)(C)N1C(=O)C(=O)N(c2ccc(C#N)cc2)C1=S — lower, 173 to 174 °C
- Cc1[nH]c2ccc(/C=C/C(=O)OCc3ccccc3)cc2c1Cn1ccnc1 — lower, 120 to 122 °C
- COc1cccc(C(=O)Nc2ccc3sc(C)nc3c2Cl)c1 — lower, 177 to 179 °C
- CC(c1ccc(C=Cc2ccccc2)s1)N(O)C(N)=O (configuration not stated) — lower, 160 to 163 °C
